Earlier results on one molecule are cited in patent publication US6391342B1, “Pharmaceutical formulation comprising a 2- [(2-pyridinyl) methyl] sulfinyl benzimidazole having anti-ulcer activity and a process for the preparation of such formulation” (A/S GEA Farmaceutisk Fabrik, priority 1998, dated 2002).

Like-named read-outs stand apart in the source and are kept apart here.

For `COc1ccc2[nH]c([S+]([O-])Cc3ncc(C)c(OC)c3C)nc2c1` (stereo not drawn) [omeprazole, 5-methoxy-2-[[(4-methoxy-3,5-dimethyl-2-pyridinyl)methyl]sulfinyl]-1H-benzimidazole], the stability to acids result (acids) was “sensible to acids”. The solubility result runs as follows: (in alkaline solutions) “very soluble”; (in water) “only slightly soluble”.
